No end group written: not given here.
Tests used:
BMF = assay: Apoptotic nuclei after BMF knockdown siRNA and CP-dn-CEBPD; type: cell-based; details: siRNA 2 days, then 20 μM peptide 2 days; T98G, MCF7, A375 and HCT116 cells
Method: T98G, MCF7, A375, and HCT116 cells were treated with one of two BMF knockdown siRNAs or control siRNA for 2 days, then treated with or without 20 μM CP-dn-CEBPD for 2 days. Cultures were assessed for % of apoptotic nuclei (n=6 random fields) (FIG. 36A, T98G; FIG. 36B, MCF7; FIG. 38C, A375; FIG. 36D, HCT116).

B16-F10 cells = assay: B16-F10 subcutaneous tumors; type: in vivo, C56BL/6 mice; details: 20 or 50 mg/kg intraperitoneally
Method: B16-F10 cells were subcutaneously implanted in the flanks of C56BL/6 mice. After the tumors were established, the mice were treated intraperitoneally with 20 or 50 mg/kg of CP-dn-CEBPD or vehicle as indicated in the schema shown in FIG. 38A. Animal weight was monitored (FIG. 38B). […] FIG. 38D compares calculated individual and mean tumor volumes for each group of animals on day 12.

A375 cells = assay: A375 subcutaneous tumors, 20 mg/kg survival study; type: in vivo, NCR nude mice; details: 20 mg/kg intraperitoneally
Method: A375 cells were subcutaneously implanted in the flanks of NCR nude mice. Once tumors had formed, the animals were treated intraperitoneally with 20 mg/kg of CP-dn-CEBPD or vehicle as indicated in the schema shown in FIG. 39A. Animal weight was monitored (FIG. 39B). Tumor sizes were measured and volumes calculated on each day of injection. […] FIG. 39D compares calculated individual and mean tumor volumes for vehicle and CP-dn-CEBPD treated animals on day 28.

HCT116 cells = assay: HCT116 subcutaneous tumors; type: in vivo, NCR nude mice; details: 20 mg/kg intraperitoneally
Method: HCT116 cells were subcutaneously implanted in the flanks of NCR nude mice. After tumors formed, the animals were treated intraperitoneally with 20 mg/kg of CP-dn-CEBPD or vehicle as indicated in the schema shown FIG. 40A. Animal weight was monitored (FIG. 40). […] FIG. 40D compares calculated individual and mean tumor volumes for vehicle and CP-dn-CEBPD treated animals on day 11.

A375 xenograft tumors = assay: TUNEL staining of A375 xenograft tumors; type: in vivo, mice; details: 20 mg/kg, retreated 2 days later, tumors harvested after additional 2 days
Method: Subcutaneous A375 xenograft tumors were established in mice. When the tumors reached approximately 300 mm^3, randomly chosen animals were treated with vehicle or 20 mg/kg of CP-dn-CEBPD. The animals were retreated 2 days later and, after an additional 2 days, the animals were sacrificed, and the tumors harvested for histology and TUNEL staining to detect apoptosis. Results are presented in FIG. 42A (vehicle) and FIG. 42B (CP-dn-CEBPD).

[1] = endpoint morbid behavior or tumor >1000 mm^3

## RQIKIWFQNRRMKWKKLVELSAENEKLHQRVEQLTRDLAGLRQFFK [CP-DN-CEBPD]
BMF
  % of apoptotic nuclei with BMF knockdown siRNAs or control siRNA: kills cancer cells by upregulating pro-apoptotic BMF
B16-F10 cells
  side effects (animal weight monitored): no apparent side effects
B16-F10 cells; to day 12-13
  tumor growth (calculated tumor volumes): suppressed tumor growth
A375 cells
  side effects (animal weight monitored): no apparent side effects
A375 cells; [1]
  animal survival: increased animal survival
A375 cells; to day 28
  tumor growth (calculated tumor volumes): suppressed tumor growth
HCT116 cells
  side effects (animal weight monitored): no apparent side effects
HCT116 cells; [1]
  animal survival: increased animal survival
HCT116 cells; to day 11
  tumor growth (calculated tumor volumes): suppressed tumor growth
A375 xenograft tumors
  apoptosis of tumor cells (TUNEL staining): causes apoptosis of tumor cells in vivo

Source: US12428455B2, “Dominant negative CEBPB and CEBPD proteins and methods of use for decreasing viability of neoplastic cells” (The Trustees of Columbia University in the City of New York, priority 2018, dated 2025)
